# Measured values as given in article PMC7438494 (Communications Biology, 2020).
# Like-named read-outs stand apart in the source and are kept apart here.
# Target: human ATP synthase (Homo sapiens, UniProt P00846+P05496)
# Assay: biochemical
# Assay type: biochemical
# Conditions: Human Mito
# [1] = 3rd exp (12-20-18), BDQ in DMSO, Bedaquiline 0.05 μM, 60 min
# [2] = 4th exp (12-12-28), repeated point, Bedaquiline 5e-6 μM, 60 min
# [3] = 4th exp (12-12-28), repeated point, Bedaquiline 5e-5 μM, 60 min
smiles,measurement,setting,value
"COc1nc2ccc(Br)cc2cc1[C@@H](c1ccccc1)[C@@](O)(CCN(C)C)c1cccc2ccccc12 [BDQ, Bedaquiline]",Cyanide sensitive,"2nd exp (12-17-18), Bedaquiline 0.2 μM, 60 min",5.1889 nmol/min/mg
same,activity at 0.2 µM,"2nd exp (12-17-18), Bedaquiline 0.2 μM, 60 min, read-out: % activity",59.9%
same,Cyanide sensitive,"2nd exp (12-17-18), Bedaquiline 0.5 μM, 60 min",5.024 nmol/min/mg
same,activity at 0.5 µM,"2nd exp (12-17-18), Bedaquiline 0.5 μM, 60 min, read-out: % activity",58%
same,Cyanide sensitive,"2nd exp (12-17-18), Bedaquiline 0.65 μM, 60 min",2.666 nmol/min/mg
same,activity at 0.65 µM,"2nd exp (12-17-18), Bedaquiline 0.65 μM, 60 min, read-out: % activity",30.8%
same,Cyanide sensitive,"2nd exp (12-17-18), Bedaquiline 0.85 μM, 60 min",2.868 nmol/min/mg
same,activity at 0.85 µM,"2nd exp (12-17-18), Bedaquiline 0.85 μM, 60 min, read-out: % activity",33.1%
same,Cyanide sensitive,"2nd exp (12-17-18), Bedaquiline 2 μM, 60 min",0.0982 nmol/min/mg
same,activity at 2 µM,"2nd exp (12-17-18), Bedaquiline 2 μM, 60 min, read-out: % activity",1.13%
same,Cyanide sensitive,"2nd exp (12-17-18), Bedaquiline 5 μM, 60 min",-0.8746 nmol/min/mg
same,activity at 5 µM,"2nd exp (12-17-18), Bedaquiline 5 μM, 60 min, read-out: % activity",-10.1%
same,activity at 0.005 µM,"2 nd exp (18_12_17), BDQ 0.005 uM, read-out: Cyanide sensitive % activity",43.8%
same,activity at 0.1 µM,"2 nd exp (18_12_17), BDQ 0.1 uM, read-out: Cyanide sensitive % activity",62%
same,activity at 0.2 µM,"2 nd exp (18_12_17), BDQ 0.2 uM, read-out: Cyanide sensitive % activity",59.9%
same,activity at 0.5 µM,"2 nd exp (18_12_17), BDQ 0.5 uM, read-out: Cyanide sensitive % activity",58%
same,activity at 0.65 µM,"2 nd exp (18_12_17), BDQ 0.65 uM, read-out: Cyanide sensitive % activity",30.8%
same,activity at 0.85 µM,"2 nd exp (18_12_17), BDQ 0.85 uM, read-out: Cyanide sensitive % activity",33.1%
same,activity at 2 µM,"2 nd exp (18_12_17), BDQ 2 uM, read-out: Cyanide sensitive % activity",1.13%
same,Cyanide sensitive,"3rd exp (12-20-18), BDQ in DMSO, Bedaquiline 0.0005 μM, 60 min",7.6746 nmol/min/mg
same,activity at 0.0005 µM,"3rd exp (12-20-18), BDQ in DMSO, Bedaquiline 0.0005 μM, 60 min, read-out: % activity",81.5%
same,Cyanide sensitive,"3rd exp (12-20-18), BDQ in DMSO, Bedaquiline 0.005 μM, 60 min",8.333 nmol/min/mg
same,activity at 0.005 µM,"3rd exp (12-20-18), BDQ in DMSO, Bedaquiline 0.005 μM, 60 min, read-out: % activity",88.5%
same,Cyanide sensitive,[1],6.758 nmol/min/mg
same,activity at 0.05 µM,[1],71.8%
same,Cyanide sensitive,"3rd exp (12-20-18), BDQ in DMSO, Bedaquiline 0.1 μM, 60 min",8.103 nmol/min/mg
same,activity at 0.1 µM,"3rd exp (12-20-18), BDQ in DMSO, Bedaquiline 0.1 μM, 60 min, read-out: % activity",86%
same,Cyanide sensitive,"3rd exp (12-20-18), BDQ in DMSO, Bedaquiline 0.2 μM, 60 min",5.599 nmol/min/mg
same,activity at 0.2 µM,"3rd exp (12-20-18), BDQ in DMSO, Bedaquiline 0.2 μM, 60 min, read-out: % activity",59.5%
same,Cyanide sensitive,"3rd exp (12-20-18), BDQ in DMSO, Bedaquiline 0.5 μM, 60 min",3.146 nmol/min/mg
same,activity at 0.5 µM,"3rd exp (12-20-18), BDQ in DMSO, Bedaquiline 0.5 μM, 60 min, read-out: % activity",33.4%
same,Cyanide sensitive,"3rd exp (12-20-18), BDQ in DMSO, Bedaquiline 0.65 μM, 60 min",3.762 nmol/min/mg
same,activity at 0.65 µM,"3rd exp (12-20-18), BDQ in DMSO, Bedaquiline 0.65 μM, 60 min, read-out: % activity",40%
same,Cyanide sensitive,"3rd exp (12-20-18), BDQ in DMSO, Bedaquiline 0.85 μM, 60 min",3.062 nmol/min/mg
same,activity at 0.85 µM,"3rd exp (12-20-18), BDQ in DMSO, Bedaquiline 0.85 μM, 60 min, read-out: % activity",32.5%
same,Cyanide sensitive,"3rd exp (12-20-18), BDQ in DMSO, Bedaquiline 1 μM, 60 min",-0.07798 nmol/min/mg
same,activity at 1 µM,"3rd exp (12-20-18), BDQ in DMSO, Bedaquiline 1 μM, 60 min, read-out: % activity",-0.828%
same,Cyanide sensitive,"3rd exp (12-20-18), BDQ in DMSO, Bedaquiline 2 μM, 60 min",0.1555 nmol/min/mg
same,activity at 2 µM,"3rd exp (12-20-18), BDQ in DMSO, Bedaquiline 2 μM, 60 min, read-out: % activity",1.65%
same,Cyanide sensitive,"3rd exp (12-20-18), BDQ in DMSO, Bedaquiline 5 μM, 60 min",-0.3777 nmol/min/mg
same,activity at 5 µM,"3rd exp (12-20-18), BDQ in DMSO, Bedaquiline 5 μM, 60 min, read-out: % activity",-4.01%
same,activity at 0.0005 µM,"3rd exp (18_12_20), BDQ 0.0005 uM, read-out: Cyanide sensitive % activity",81.5%
same,activity at 0.005 µM,"3rd exp (18_12_20), BDQ 0.005 uM, read-out: Cyanide sensitive % activity",88.5%
same,activity at 0.2 µM,"3rd exp (18_12_20), BDQ 0.2 uM, read-out: Cyanide sensitive % activity",59.5%
same,activity at 0.5 µM,"3rd exp (18_12_20), BDQ 0.5 uM, read-out: Cyanide sensitive % activity",33.4%
same,activity at 0.65 µM,"3rd exp (18_12_20), BDQ 0.65 uM, read-out: Cyanide sensitive % activity",40%
same,activity at 0.85 µM,"3rd exp (18_12_20), BDQ 0.85 uM, read-out: Cyanide sensitive % activity",32.5%
same,activity at 1 µM,"3rd exp (18_12_20), BDQ 1 uM, read-out: Cyanide sensitive % activity",-0.84%
same,activity at 2 µM,"3rd exp (18_12_20), BDQ 2 uM, read-out: Cyanide sensitive % activity",1.68%
same,activity at 5 µM,"3rd exp (18_12_20), BDQ 5 uM, read-out: Cyanide sensitive % activity",-4.13%
same,Cyanide sensitive,"4th exp (12-12-28), BDQ in DMSO, Bedaquiline 5e-6 μM, 60 min",6.055 nmol/min/mg
same,Cyanide sensitive,"4th exp (12-12-28), BDQ in DMSO, Bedaquiline 5e-5 μM, 60 min",5.641 nmol/min/mg
same,Cyanide sensitive,"4th exp (12-12-28), BDQ in DMSO, Bedaquiline 0.0005 μM, 60 min",4.664 nmol/min/mg
same,activity at 0.0005 µM,"4th exp (12-12-28), BDQ in DMSO, Bedaquiline 0.0005 μM, 60 min, read-out: % activity",52.7%
same,Cyanide sensitive,"4th exp (12-12-28), BDQ in DMSO, Bedaquiline 0.005 μM, 60 min",4.551 nmol/min/mg
same,activity at 0.005 µM,"4th exp (12-12-28), BDQ in DMSO, Bedaquiline 0.005 μM, 60 min, read-out: % activity",51.4%
same,Cyanide sensitive,"4th exp (12-12-28), BDQ in DMSO, Bedaquiline 0.1 μM, 60 min",6.3 nmol/min/mg
same,activity at 0.1 µM,"4th exp (12-12-28), BDQ in DMSO, Bedaquiline 0.1 μM, 60 min, read-out: % activity",71.2%
same,Cyanide sensitive,"4th exp (12-12-28), BDQ in DMSO, Bedaquiline 0.2 μM, 60 min",4.408 nmol/min/mg
same,activity at 0.2 µM,"4th exp (12-12-28), BDQ in DMSO, Bedaquiline 0.2 μM, 60 min, read-out: % activity",49.8%
same,Cyanide sensitive,"4th exp (12-12-28), BDQ in DMSO, Bedaquiline 0.5 μM, 60 min",4.526 nmol/min/mg
same,activity at 0.5 µM,"4th exp (12-12-28), BDQ in DMSO, Bedaquiline 0.5 μM, 60 min, read-out: % activity",51.2%
same,Cyanide sensitive,"4th exp (12-12-28), BDQ in DMSO, Bedaquiline 0.65 μM, 60 min",3.3225 nmol/min/mg
same,activity at 0.65 µM,"4th exp (12-12-28), BDQ in DMSO, Bedaquiline 0.65 μM, 60 min, read-out: % activity",37.6%
same,Cyanide sensitive,"4th exp (12-12-28), BDQ in DMSO, Bedaquiline 1 μM, 60 min",0.7592 nmol/min/mg
same,activity at 1 µM,"4th exp (12-12-28), BDQ in DMSO, Bedaquiline 1 μM, 60 min, read-out: % activity",8.58%
same,Cyanide sensitive,"4th exp (12-12-28), BDQ in DMSO, Bedaquiline 2 μM, 60 min",0.2448 nmol/min/mg
same,activity at 2 µM,"4th exp (12-12-28), BDQ in DMSO, Bedaquiline 2 μM, 60 min, read-out: % activity",2.77%
same,Cyanide sensitive,"4th exp (12-12-28), BDQ in DMSO, Bedaquiline 5 μM, 60 min",-0.2191 nmol/min/mg
same,activity at 5 µM,"4th exp (12-12-28), BDQ in DMSO, Bedaquiline 5 μM, 60 min, read-out: % activity",-2.48%
same,Cyanide sensitive,"4th exp (12-12-28), BDQ in DMSO, Bedaquiline 10 μM, 60 min",-0.1822 nmol/min/mg
same,activity at 10 µM,"4th exp (12-12-28), BDQ in DMSO, Bedaquiline 10 μM, 60 min, read-out: % activity",-2.06%
same,Repeted points,[2],6.965 nmol/min/mg
same,Repeted points % activity,[2],78.7332%
same,Repeted points,[3],6.5997 nmol/min/mg
same,Repeted points % activity,[3],74.6041%
same,Repeted points,"4th exp (12-12-28), repeated point, Bedaquiline 1 μM, 60 min",0.7668 nmol/min/mg
same,activity at 1 µM,"4th exp (12-12-28), repeated point, Bedaquiline 1 μM, 60 min, read-out: Repeted points % activity",8.67%
same,activity at 10 µM,"4th exp (18_12_26) duplicate, BDQ 10 uM, read-out: Cyanide sensitive % activity",-2.1%
same,activity at 0.1 µM,"4th exp (18_12_26), BDQ 0.1 uM, read-out: Cyanide sensitive % activity",71.2%
same,activity at 0.2 µM,"4th exp (18_12_26), BDQ 0.2 uM, read-out: Cyanide sensitive % activity",49.8%
same,activity at 0.5 µM,"4th exp (18_12_26), BDQ 0.5 uM, read-out: Cyanide sensitive % activity",51.2%
same,activity at 0.65 µM,"4th exp (18_12_26), BDQ 0.65 uM, read-out: Cyanide sensitive % activity",37.6%
